Assays:
[1] = target: T1, human chemokine (C-X-C motif) receptor 3 (Homo sapiens, UniProt P49682); assay: Positive allosteric modulator assay method 1 (PAM1), Tango CXCR3-bla U2OS; type: cell-based
T1 construct: TEV protease site; Gal4-VP16 transcription factor ('Ga14-VP16' [sic]); Tango cell line; host or cells: Tango GPCR-bla U2OS
T1 sequence (P49682 1-368): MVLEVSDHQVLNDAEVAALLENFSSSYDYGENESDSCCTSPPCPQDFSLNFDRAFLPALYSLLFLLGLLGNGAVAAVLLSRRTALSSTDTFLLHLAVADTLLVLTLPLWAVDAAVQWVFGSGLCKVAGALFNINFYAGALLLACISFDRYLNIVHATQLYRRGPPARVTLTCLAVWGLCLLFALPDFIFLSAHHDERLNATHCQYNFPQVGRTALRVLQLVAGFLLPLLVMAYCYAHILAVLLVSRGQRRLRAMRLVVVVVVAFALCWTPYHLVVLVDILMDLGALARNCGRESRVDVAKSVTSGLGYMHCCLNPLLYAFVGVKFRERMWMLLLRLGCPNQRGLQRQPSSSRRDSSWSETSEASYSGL
Source text: To assay positive allosteric modulator activity of SG-3-00802 (SEQ ID NO: 1) and SG-3-006683 in CXCR3 cell lines, the cell line Tango™ CXCR3-bla U2OS was used in a positive allosteric modulator assay with two different methods, as described below.
Tango™ CXCR3-bla U2OS cells contain the human chemokine (C-X-C motif) receptor 3 linked to a TEV protease site and a Ga14-VP16 transcription factor stably integrated into the Tango™ GPCR-bla U2OS cell line. This parental cell line stably expresses a beta-arrestin/TEV protease fusion protein and the beta-lactamase reporter gene under the control of a UAS response element. The Tango™ CXCR3-bla U2OS cells have been functionally validated for a response to I-TAC (CXCL11).
In positive allosteric modulator assay method 1 (PAM1), cells were diluted in Assay Media to an appropriate cell density and were added to the assay plate. Peptides were added at increasing concentrations (1 nM-20 mcM) to the cells in the assay plate and incubated for 30 minutes. Ligand (CXCL9, CXCL10, or CXCL11) was added at an EC20 to all wells containing test compound. The assay plate was incubated for 16 hours at 37° C. Substrate Loading Solution was added to the assay plate and incubated for 2 hours at room temperature, in the dark. The assay plate was read on a fluorescence plate reader and the data was analyzed. PAM activity was calculated as follows:
% of PAM=((Test compound−Unstimulated)/(Stimulated−Unstimulated))×100.

CCR9 = target: T2, CCR9 (Homo sapiens, UniProt P51686); assay: gpcrMAX PathHunter β-Arrestin Assay; type: cell-based
T2 construct: expressed in transfected cells
T2 sequence (P51686 1-369): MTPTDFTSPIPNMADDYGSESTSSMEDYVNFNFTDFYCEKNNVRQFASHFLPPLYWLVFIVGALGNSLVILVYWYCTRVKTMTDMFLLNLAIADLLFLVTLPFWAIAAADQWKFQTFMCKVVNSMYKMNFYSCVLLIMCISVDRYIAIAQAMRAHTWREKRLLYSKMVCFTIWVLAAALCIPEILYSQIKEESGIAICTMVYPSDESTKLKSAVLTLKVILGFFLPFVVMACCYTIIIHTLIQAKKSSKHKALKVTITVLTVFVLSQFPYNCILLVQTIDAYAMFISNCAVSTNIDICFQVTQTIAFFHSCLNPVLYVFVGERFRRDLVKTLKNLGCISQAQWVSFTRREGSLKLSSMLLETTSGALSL
Source text: The PathHunter® β-Arrestin Assay monitored activation of a panel of 168 G-protein coupled receptors (GPCRs) with […] activation of the GPCR in agonist and antagonist mode.
where the test sample is the peptide, the vehicle control is DMSO (0% activity), and the control ligand is control compound (100% activity).
Peptides SG-3-00802 and SG-3-05021 were identified as an agonist, an antagonist, a PAM (Positive Allosteric Modulator), or an inverse-agonist. Agonist, antagonist, PAM, and inverse-agonist were identified according to the guidelines in Table 8. The basal activity/noise is a % activity of −20% to 20% for both agonist and antagonist modes. A PAM (Positive Allosteric Modulator) binds to a receptor, at a different site than the agonist, to change the receptor's response to the agonist. An inverse-Agonist is a binding partner with agonistic shutting down of basal activity in the cell. An antagonist antagonizes the activity of a particular binding partner.

[2] = tested on: Unstimulated human T cells; assay: Transwell T cell migration towards CXCR3 ligands; type: cell-based
Method: T cell migration towards CXCR3 ligands in the presence of SG-3-00802 and SG-3-06683 was tested using a Transwell migration assay. Suboptimal concentrations of each ligand (CXCR3 ligands CXCL9, CXCL10, and CXCL11) were added to the bottom of the transwell with increasing doses of SG-3-00802 or SG-3-006683. An optimal concentration of ligand was used as positive control, as indicated in the graphs.
Unstimulated human T cells were resuspended in AIM V serum-free media, then were added to the top chamber of a […] polycarbonate Transwell insert and incubated with the indicated concentrations of the ligands and peptides in the bottom chamber for 2.5 hours at 37° C. T cells that migrated to the bottom chamber were collected, stained with anti-CD3 antibody, and counted using Beckman Coulter Cytoflex flow cytometer. 123count eBeads counting beads were added to each of the wells for obtaining the absolute cell counts.

RENCA tumor model = assay: CXCL10 and CD8a levels in RENCA tumor bearing mice; type: in vivo, Balb/c mice; conditions: 2.5 mg/kg BID peritumorally for 7d
Method: Several mechanism of action related endpoints were also measured in vivo. Balb/c mice were implanted with RENCA cells and treated with candidate lead peptides and control compounds. Dosing occurred during the 1st week only: SG-3-00802 was dosed peritumorally at 2.5 mg/kg BID for 7d, anti-PD-1 was dosed i.p. at 10 mg/kg TIW for a total of 3 doses.

[3] = tested on: moDCs and allogeneic T cells; assay: Mixed lymphocyte reaction (MLR) cytokine release; type: cell-based
Method: Twenty-four hours later, T cells isolated from allogeneic donors were added to the moDCs with the peptide of interest, SG-3-00802 or SG-3-05021, alone or in combination with anti-PD-L1 monoclonal antibody. The co-culture of cells was incubated for 72 hours, after which cell supernatants were harvested and analyzed for secretion of cytokines, IFN-g and TNF-α. […] Data shown for experiment conducted in >4 Donor PBMCs.

Sequence | activity of CXCR3 in presence of ligand (PAM1) ([1]; CXCL9 at EC20) | activity of CXCR3 in presence of ligand (PAM1) ([1]; CXCL10 at EC20) | activity of CXCR3 in presence of ligand (PAM1) ([1]; CXCL11 at EC20) | % Agonist Activity (CCR9) | % Antagonist Activity (CCR9) | T cell migration to suboptimal level of ligand ([2]; CXCL9, 2.5 hours) | T cell migration to suboptimal level of ligand ([2]; CXCL10, 2.5 hours) | T cell migration to suboptimal level of ligand ([2]; CXCL11, 2.5 hours) | CD8a expression in the tumor (RENCA tumor model) | expression of CXCL10 in the tumor (RENCA tumor model) | serum levels of CXCL10 (RENCA tumor model) | IFN-γ secretion ([3]; after stimulation with anti-CD40, in combination with anti-PD-L1, 72 hours) | IFN-γ secretion ([3]; after stimulation with anti-CD40, peptide alone, 72 hours)
MKVRPSVKPMCEKCKIIRRKGRVMVICENPKHKQRQG [SG-3-00802] | enhanced activity of CXCR3 | enhanced activity of CXCR3 | enhanced activity of CXCR3 | 2% | −48% | increased migration | increased migration | increased migration | increase in CD8a expression | increased expression of CXCL10 in the tumor | increased serum levels of CXCL10 |  | 
LGKTDWIEKYFKVKKEKIDKMQRFLQG (peptide for immunotherapy; SG-3-05021) |  |  |  |  |  |  |  |  |  |  |  | increase in IFN-γ | increase in IFN-γ

Reference: patent US20240317816A1, “PEPTIDES FOR IMMUNOTHERAPY” (Genevive, Inc., priority 2021, published 2024)
